The text below walks through data of PMC6834573, “Novel insights into transketolase activation by cofactor binding identifies two native species subpopulations” (Scientific Reports, 2019).

The target of data set [1] is T1, wild-type E. coli transketolase (TK; TKhigh / TKlow subpopulations) (Escherichia coli, UniProt P27302).
T1 construct: gene tktA; full length, N-terminal His6-tag kept, from plasmid pQR791 in E. coli XL10-gold; apo form after dialysis; homodimer; about one third oxidised (TKhigh), rest unmodified (TKlow)
Put plainly: intrinsic fluorescence quenching (ex […] nm, em […] nm), double-Hill fit. It counts as binding. Particulars: read-out: Kd(high).

Data set [2] addresses T1, wild-type E. coli transketolase (TK; TKhigh / TKlow subpopulations). Described as above. The class given is binding. Particulars: second site, 9 mM Mg2+, 50 mM Tris-HCl pH 7.0, 22 °C, 0.05 mg/mL TK, low-affinity subpopulation TKlow (chemically unmodified enzyme).
Data set [3] concerns the molecule itself. Put plainly: AUC; sedimentation velocity, apoTK at 0.2 mg/mL without Mg2+ and TPP, 20 °C, pH 7.0, 40,000 rpm, c(s) analysis with SEDFIT; dimer to monomers.

For orientation: Kd means the concentration at which binding is half-saturated. As a reminder, the stoichiometry N is a count of units in the complex or per binding partner.

T1 sequence (P27302 whole entry): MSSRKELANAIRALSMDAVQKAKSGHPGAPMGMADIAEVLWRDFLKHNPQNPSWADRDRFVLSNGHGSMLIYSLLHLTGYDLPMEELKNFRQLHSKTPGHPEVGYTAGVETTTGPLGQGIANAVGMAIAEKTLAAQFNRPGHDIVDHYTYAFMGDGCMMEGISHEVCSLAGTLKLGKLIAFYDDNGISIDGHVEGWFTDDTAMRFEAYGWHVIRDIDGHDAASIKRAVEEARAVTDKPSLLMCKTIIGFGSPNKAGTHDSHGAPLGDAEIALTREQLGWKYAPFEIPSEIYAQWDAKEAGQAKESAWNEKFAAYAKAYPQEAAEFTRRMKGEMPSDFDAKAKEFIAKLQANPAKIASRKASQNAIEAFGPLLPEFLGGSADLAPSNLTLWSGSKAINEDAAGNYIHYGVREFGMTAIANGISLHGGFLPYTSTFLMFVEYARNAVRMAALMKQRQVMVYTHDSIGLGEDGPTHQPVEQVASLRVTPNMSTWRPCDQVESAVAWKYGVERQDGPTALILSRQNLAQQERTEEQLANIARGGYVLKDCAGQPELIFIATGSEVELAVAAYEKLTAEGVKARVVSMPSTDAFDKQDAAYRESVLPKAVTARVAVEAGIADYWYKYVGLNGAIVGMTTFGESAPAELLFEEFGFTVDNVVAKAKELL

With `Cc1ncc(C[n+]2csc(CCOP(=O)(O)OP(=O)(O)O)c2C)c(N)n1` [TPP, thiamine pyrophosphate], the Kd in data set [1] came to 2290 ± 230 nM. Also, the “Kd(low)” value in data set [2] stood at 276000 ± 25000 nM.

B1: Wild-type E. coli transketolase (apo-transketolase) (enzyme)
chain: SSRKELANAIRALSMDAVQKAKSGHPGAPMGMADIAEVLWRDFLKHNPQNPSWADRDRFVLSNGHGSMLIYSLLHLTGYDLPMEELKNFRQLHSKTPGHPEVGYTAGVETTTGPLGQGIANAVGMAIAEKTLAAQFNRPGHDIVDHYTYAFMGDGCMMEGISHEVCSLAGTLKLGKLIAFYDDNGISIDGHVEGWFTDDTAMRFEAYGWHVIRDIDGHDAASIKRAVEEARAVTDKPSLLMCKTIIGFGSPNKAGTHDSHGAPLGDAEIALTREQLGWKYAPFEIPSEIYAQWDAKEAGQAKESAWNEKFAAYAKAYPQEAAEFTRRMKGEMPSDFDAKAKEFIAKLQANPAKIASRKASQNAIEAFGPLLPEFLGGSADLAPSNLTLWSGSKAINEDAAGNYIHYGVREFGMTAIANGISLHGGFLPYTSTFLMFVEYARNAVRMAALMKQRQVMVYTHDSIGLGEDGPTHQPVEQVASLRVTPNMSTWRPCDQVESAVAWKYGVERQDGPTALILSRQNLAQQERTEEQLANIARGGYVLKDCAGQPELIFIATGSEVELAVAAYEKLTAEGVKARVVSMPSTDAFDKQDAAYRESVLPKAVTARVAVEAGIADYWYKYVGLNGAIVGMTTFGESAPAELLFEEFGFTVDNVVAKAKELL
notes: Transketolase (EC 2.2.1.1) of E. coli, wild type; monomeric molecular weight 73035.5 g/mol as printed; The preparation is a mixture; By mass spectrometry about 31% carries one or two extra oxygen atoms (TKhigh, most likely Cys157 sulfenic or sulfinic acid) and the rest is unmodified (TKlow); also called TK; apoTK; source: E. coli XL10-gold, from the plasmid pQR791, purified, ultrafiltrated and …
Consider B1, for which the “stoichiometry N” value in data set [3] turned out to be 2.
